Key:
Type in all cases: binding
CYP147G1 [1] = target: T1, CYP147G1 (Mycobacterium marinum, UniProt B2HE89); experiment: UV/Vis heme spin-state shift; settings: purified ferric enzyme; also oxidised to indigo in E. coli with FdR1/Fdx3
T1 construct: produced in E. coli, purified by two ion exchange steps; ferric heme
T1 sequence (B2HE89 1-422): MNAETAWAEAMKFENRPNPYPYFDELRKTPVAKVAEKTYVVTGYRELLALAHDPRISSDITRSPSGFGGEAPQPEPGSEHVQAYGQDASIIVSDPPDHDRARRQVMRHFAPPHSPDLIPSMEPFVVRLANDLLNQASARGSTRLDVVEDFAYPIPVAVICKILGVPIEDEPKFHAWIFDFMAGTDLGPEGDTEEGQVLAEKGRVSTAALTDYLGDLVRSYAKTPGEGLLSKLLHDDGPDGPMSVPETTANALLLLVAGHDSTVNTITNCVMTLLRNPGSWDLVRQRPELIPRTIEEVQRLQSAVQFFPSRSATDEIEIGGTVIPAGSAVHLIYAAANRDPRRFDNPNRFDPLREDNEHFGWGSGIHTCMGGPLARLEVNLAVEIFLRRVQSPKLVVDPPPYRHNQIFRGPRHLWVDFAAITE

CYP269A1 = target: T2, CYP269A1 (Mycobacterium marinum, UniProt B2HPM5); experiment: UV/Vis heme Soret shift titration
T2 construct: produced in E. coli and purified; high-spin-like ferric heme (Soret 390 nm); gene near ferredoxin gene Mmar_3973 (Fdx4)
T2 sequence (B2HPM5 1-403): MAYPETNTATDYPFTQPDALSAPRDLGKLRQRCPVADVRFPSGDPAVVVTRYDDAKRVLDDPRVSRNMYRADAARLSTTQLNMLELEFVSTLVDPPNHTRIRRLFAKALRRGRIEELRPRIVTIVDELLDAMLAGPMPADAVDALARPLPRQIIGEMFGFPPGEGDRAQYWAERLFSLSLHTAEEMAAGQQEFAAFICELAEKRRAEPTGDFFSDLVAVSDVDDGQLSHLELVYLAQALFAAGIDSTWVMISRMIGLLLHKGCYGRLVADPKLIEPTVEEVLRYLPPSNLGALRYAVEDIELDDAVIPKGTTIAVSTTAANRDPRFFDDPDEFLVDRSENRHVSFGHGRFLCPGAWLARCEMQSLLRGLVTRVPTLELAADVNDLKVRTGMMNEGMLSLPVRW

CYP147G1 [2] = target: T1, CYP147G1; experiment: UV/Vis heme spin-state shift titration; settings: read-out: dissociation constant
CYP150A5 = target: T3, CYP150A5 (Mycobacterium marinum, UniProt B2HG29); experiment: UV/Vis heme spin-state shift titration
T3 construct: produced in E. coli and purified; ferric heme; gene near ferredoxin gene Mmar_4736 (Fdx8)
T3 sequence (B2HG29 1-423): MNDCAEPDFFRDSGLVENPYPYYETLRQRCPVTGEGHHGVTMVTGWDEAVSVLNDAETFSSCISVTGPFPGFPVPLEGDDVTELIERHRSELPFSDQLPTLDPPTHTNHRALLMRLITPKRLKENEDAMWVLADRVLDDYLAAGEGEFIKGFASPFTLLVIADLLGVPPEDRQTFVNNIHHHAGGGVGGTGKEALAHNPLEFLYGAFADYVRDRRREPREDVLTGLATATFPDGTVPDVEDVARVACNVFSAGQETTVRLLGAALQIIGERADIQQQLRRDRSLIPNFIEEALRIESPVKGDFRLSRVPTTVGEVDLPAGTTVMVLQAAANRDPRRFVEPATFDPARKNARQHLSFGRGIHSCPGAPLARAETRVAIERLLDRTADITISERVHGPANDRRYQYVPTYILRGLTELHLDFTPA

CYP278A1 = target: T4, CYP278A1 (Mycobacterium marinum, UniProt B2HE37); experiment: UV/Vis heme spin-state shift titration
T4 construct: produced in E. coli and purified; ferric heme; gene near ferredoxin gene Mmar_2879 (Fdx2)
T4 sequence (B2HE37 1-427): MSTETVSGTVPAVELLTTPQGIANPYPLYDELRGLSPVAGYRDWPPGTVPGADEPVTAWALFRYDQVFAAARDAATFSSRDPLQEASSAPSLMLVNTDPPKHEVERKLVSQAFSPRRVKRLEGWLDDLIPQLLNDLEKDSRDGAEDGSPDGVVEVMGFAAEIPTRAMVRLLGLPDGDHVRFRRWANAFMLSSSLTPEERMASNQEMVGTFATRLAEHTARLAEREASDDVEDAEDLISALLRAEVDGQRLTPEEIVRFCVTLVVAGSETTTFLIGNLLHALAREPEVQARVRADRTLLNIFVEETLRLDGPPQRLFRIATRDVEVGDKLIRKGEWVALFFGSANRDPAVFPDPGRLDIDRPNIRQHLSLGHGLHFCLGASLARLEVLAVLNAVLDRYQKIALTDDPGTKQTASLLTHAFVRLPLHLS

For `c1ccc2[nH]ccc2c1` [indole], the “% high-spin” value (CYP147G1 [1]) was under 5%.
In the case of `Clc1ccc(COC(Cn2ccnc2)c2ccc(Cl)cc2Cl)c(Cl)c1` (centres unmarked) [miconazole], the Kd (CYP269A1) is reported as 0.05 ± 0.007 µM.
`CCCCCCCCCCC(=O)O` [undecanoic acid] showed a Kd (CYP147G1 [2]) of 25 ± 4 µM.
`CC(=O)/C=C/C1=C(C)CCCC1(C)C` [β-ionone] gave a Kd (CYP150A5) of 41 ± 3 µM and a Kd (CYP278A1) of 5.1 ± 1.5 µM.

From article PMC6237146, “Electron transfer ferredoxins with unusual cluster binding motifs support secondary metabolism in many bacteria” (Chemical Science, 2018)
